Results published in patent US6403647B1, “Pulsed administration of compositions for the treatment of blood disorders” (priority 1996, dated 2002).

Experiments:
γ-globin expression = assay: γ-globin mRNA by RNase protection in erythroid cell cultures of normal individuals; assay type: cell-based, human; details: for x increase in % s: over ChFCS
Description: Fetal globin production was determined in erythroid progenitor cells cultured in the presence or absence of test compositions. Erythroid cells were purified from blood obtained from a normal individual . […] Erythroid cell cultures were established with the following conditions: IMDM methylcellulose media, erythropoietin (3 U/ml), the human subjects' mononuclear cells, 30% charcoal-absorbed fetal calf serum, and the test compounds at varying micromolar concentrations.
Compounds were tested for their ability to induce expression of fetal globin expression in erythroid cell cultures established from the peripheral blood of normal individuals. Colonies were harvested and assayed for globin mRNA following 14 days of culture. Each compound was tested in duplicate cultures from 2-4 individual human subjects. Globin expression was quantitated by RNase protection assay for % gamma globin as a fraction of total non-alpha globin (% gamma/gamma+beta globin mRNA).

fetal globin [1] = assay: Proportion of fetal globin-expressing cells in culture, fluorescent antibodies, sickle cell patient; assay type: cell-based, human; details: concentration not given, 14 days, controls 40.7%
Description: In a fourth experiment, erythroid cells were obtained from a sickle cell patient. These cells were established in culture both with and without test a variety of test compounds. Cultures were incubated for 14 days in methylcellulose media with maximal concentrations of all hematopoietic growth factors (GM-CSF, SCF, EPO). Colonies were analyzed using fluorescent monoclonal antibodies against fetal globin to determine the proportion of erythroid cells that expressed fetal globin.

[2] = system: system A transport of amino acids; assay: Uptake of 3H-methyl-aminoisobutyric acid (MeAIB) into erythroblasts; assay type: cell-based; details: for amino acid (MeAIB) uptake / transport: 2.0 mM, relative to untreated fetal liver erythroid cells
Description: Erythroblasts were tested for alterations in uptake of radio-labelled amino acid (^3H-methyl-aminoisobutyric acid; MeAIB) in the presence of AB (arginine butyrate), AMHCA (α-methylhydrocinnamic acid), PAA (phenoxyacetic acid), and IBT (isobutyramide), each at 2.0 mM.

fetal globin [3] = assay: Fetal globin production in erythroid progenitor colonies (Bfu-e), sickle cell anemia patient; assay type: cell-based, human; details: controls 48% of non-α globin

O=C(CCCCCCC(=O)NO)NO [suberoyl bis hydroxamic acid, Suberoyl bis hydroxamic acid]
x increase in % s (γ-globin expression; 0.5 μM, group 1 (99-3a, 99-3b)): 1.6 x
γ/γ + β (γ-globin expression; 0.5 μM, group 1, subject 99-3a): 13.54%
γ/γ + β (γ-globin expression; 0.5 μM, group 1, subject 99-3b): 11.55%
γ/γ + β mean (γ-globin expression; 0.5 μM, group 1, subjects 99-3a, 99-3b): 12.55%
x increase in % s (γ-globin expression; 0.5 μM, group 2 (99-4, 99-5)): 0.9 x
γ/γ + β (γ-globin expression; 0.5 μM, group 2, subject 99-4): 6.25%
γ/γ + β (γ-globin expression; 0.5 μM, group 2, subject 99-5): 6.42%
γ/γ + β mean (γ-globin expression; 0.5 μM, group 2, subjects 99-4, 99-5): 6.34%
x increase in % s (γ-globin expression; 1 μM, group 1 (99-3a, 99-3b)): 1.3 x
γ/γ + β (γ-globin expression; 1 μM, group 1, subject 99-3a): 10.99%
γ/γ + β (γ-globin expression; 1 μM, group 1, subject 99-3b): 9.19%
γ/γ + β mean (γ-globin expression; 1 μM, group 1, subjects 99-3a, 99-3b): 10.09%
x increase in % s (γ-globin expression; 1 μM, group 2 (99-4, 99-5)): 1.2 x
γ/γ + β (γ-globin expression; 1 μM, group 2, subject 99-4): 8.46%
γ/γ + β mean (γ-globin expression; 1 μM, group 2, subject 99-4 only): 8.46%
x increase in % s (γ-globin expression; 1 μM, group 3 (99-6, 99-7, 99-10)): 1.5 x
γ/γ + β (γ-globin expression; 1 μM, group 3, subject 99-6): 5.41%
γ/γ + β (γ-globin expression; 1 μM, group 3, subject 99-7): 10.76%
γ/γ + β (γ-globin expression; 1 μM, group 3, subject 99-10): 6.92%
γ/γ + β mean (γ-globin expression; 1 μM, group 3, subjects 99-6, 99-7, 99-10): 7.70%
x increase in % s (γ-globin expression; 2 μM, group 1 (99-3a, 99-3b)): 2.9 x
γ/γ + β (γ-globin expression; 2 μM, group 1, subject 99-3a): 21.36%
γ/γ + β (γ-globin expression; 2 μM, group 1, subject 99-3b): 23.63%
γ/γ + β mean (γ-globin expression; 2 μM, group 1, subjects 99-3a, 99-3b): 22.50%
x increase in % s (γ-globin expression; 2 μM, group 2 (99-4, 99-5)): 1.5 x
γ/γ + β (γ-globin expression; 2 μM, group 2, subject 99-4): 9.92%
γ/γ + β (γ-globin expression; 2 μM, group 2, subject 99-5): 10.65%
γ/γ + β mean (γ-globin expression; 2 μM, group 2, subjects 99-4, 99-5): 10.29%
x increase in % s (γ-globin expression; 2 μM, group 3 (99-6, 99-7, 99-10)): 2.1 x
γ/γ + β (γ-globin expression; 2 μM, group 3, subject 99-6): 6.65%
γ/γ + β (γ-globin expression; 2 μM, group 3, subject 99-7): 15.75%
γ/γ + β (γ-globin expression; 2 μM, group 3, subject 99-10): 10.00%
γ/γ + β mean (γ-globin expression; 2 μM, group 3, subjects 99-6, 99-7, 99-10): 10.80%
x increase in % s (γ-globin expression; 3 μM, group 1 (99-3a, 99-3b)): 3.2 x
γ/γ + β (γ-globin expression; 3 μM, group 1, subject 99-3a): 24.90%
γ/γ + β (γ-globin expression; 3 μM, group 1, subject 99-3b): 23.72%
γ/γ + β mean (γ-globin expression; 3 μM, group 1, subjects 99-3a, 99-3b): 24.31%
x increase in % s (γ-globin expression; 3 μM, group 2 (99-4, 99-5)): 2.6 x
γ/γ + β (γ-globin expression; 3 μM, group 2, subject 99-4): 17.99%
γ/γ + β (γ-globin expression; 3 μM, group 2, subject 99-5): 17.89%
γ/γ + β mean (γ-globin expression; 3 μM, group 2, subjects 99-4, 99-5): 17.94%
x increase in % s (γ-globin expression; 4 μM, group 1 (99-3a, 99-3b)): 6.4 x
γ/γ + β (γ-globin expression; 4 μM, group 1, subject 99-3a): 48.57%
γ/γ + β (γ-globin expression; 4 μM, group 1, subject 99-3b): 50.66%
γ/γ + β mean (γ-globin expression; 4 μM, group 1, subjects 99-3a, 99-3b): 49.62%
x increase in % s (γ-globin expression; 4 μM, group 2 (99-4, 99-5)): 3.4 x
γ/γ + β (γ-globin expression; 4 μM, group 2, subject 99-4): 24.10%
γ/γ + β mean (γ-globin expression; 4 μM, group 2, subject 99-4 only): 24.10%
x increase in % s (γ-globin expression; 4 μM, group 3 (99-6, 99-7, 99-10)): 3.9 x
γ/γ + β (γ-globin expression; 4 μM, group 3, subject 99-6): 13.33%
γ/γ + β (γ-globin expression; 4 μM, group 3, subject 99-7): 30.45%
γ/γ + β (γ-globin expression; 4 μM, group 3, subject 99-10): 15.73%
γ/γ + β mean (γ-globin expression; 4 μM, group 3, subjects 99-6, 99-7, 99-10): 19.84%
x increase in % s (γ-globin expression; 4 μM, group 4 (99-10, 00-1, 00-3)): 1.7 x
γ/γ + β (γ-globin expression; 4 μM, group 4, subject 00-1): 4.82%
γ/γ + β (γ-globin expression; 4 μM, group 4, subject 00-3): 5.01%
γ/γ + β (γ-globin expression; 4 μM, group 4, subject 99-10): 11.38%
γ/γ + β mean (γ-globin expression; 4 μM, group 4, subjects 99-10, 00-1, 00-3): 7.07%
x increase in % s (γ-globin expression; 6 μM, group 3 (99-6, 99-7, 99-10)): 5.5 x
γ/γ + β (γ-globin expression; 6 μM, group 3, subject 99-6): 22.97%
γ/γ + β (γ-globin expression; 6 μM, group 3, subject 99-7): 31.51%
γ/γ + β (γ-globin expression; 6 μM, group 3, subject 99-10): 29.15%
γ/γ + β mean (γ-globin expression; 6 μM, group 3, subjects 99-6, 99-7, 99-10): 27.88%
x increase in % s (γ-globin expression; 6 μM, group 4 (99-10, 00-1, 00-3)): 2.7 x
γ/γ + β (γ-globin expression; 6 μM, group 4, subject 00-1): 9.46%
γ/γ + β (γ-globin expression; 6 μM, group 4, subject 00-3): 8.89%
γ/γ + β (γ-globin expression; 6 μM, group 4, subject 99-10): 16.34%
γ/γ + β mean (γ-globin expression; 6 μM, group 4, subjects 99-10, 00-1, 00-3): 11.56%
x increase in % s (γ-globin expression; 8 μM, group 3 (99-6, 99-7, 99-10)): 7.4 x
γ/γ + β (γ-globin expression; 8 μM, group 3, subject 99-6): 31.99%
γ/γ + β (γ-globin expression; 8 μM, group 3, subject 99-7): 44.02%
γ/γ + β (γ-globin expression; 8 μM, group 3, subject 99-10): 35.73%
γ/γ + β mean (γ-globin expression; 8 μM, group 3, subjects 99-6, 99-7, 99-10): 37.25%
x increase in % s (γ-globin expression; 8 μM, group 4 (99-10, 00-1, 00-3)): 4.4 x
γ/γ + β (γ-globin expression; 8 μM, group 4, subject 00-1): 12.88%
γ/γ + β (γ-globin expression; 8 μM, group 4, subject 00-3): 21.68%
γ/γ + β (γ-globin expression; 8 μM, group 4, subject 99-10): 21.37%
γ/γ + β mean (γ-globin expression; 8 μM, group 4, subjects 99-10, 00-1, 00-3): 18.64%
x increase in % s (γ-globin expression; 10 μM, group 4 (99-10, 00-1, 00-3)): 7.3 x
γ/γ + β (γ-globin expression; 10 μM, group 4, subject 00-1): 27.89%
γ/γ + β (γ-globin expression; 10 μM, group 4, subject 00-3): 31.25%
γ/γ + β (γ-globin expression; 10 μM, group 4, subject 99-10): 35.06%
γ/γ + β mean (γ-globin expression; 10 μM, group 4, subjects 99-10, 00-1, 00-3): 31.40%
x increase in % s (γ-globin expression; 12 μM, group 4 (99-10, 00-1, 00-3)): 10.8 x
γ/γ + β (γ-globin expression; 12 μM, group 4, subject 00-3): 45.69%
γ/γ + β (γ-globin expression; 12 μM, group 4, subject 99-10): 46.94%
γ/γ + β mean (γ-globin expression; 12 μM, group 4, subjects 99-10, 00-3): 46.32%

CCC(C)(C)C(=O)O [2,2-dimethylbutyric acid]
Increase in γ-Globin Expressing Cells (fetal globin [1]): 70.1%
amino acid (MeAIB) uptake / transport [2]: moderate inhibition of transport
inhibition of MeAIB uptake ([2]; after 60 and 120 minutes): somewhat less so
increase in fetal globin over controls (fetal globin [3]): 24%

CCOC(=O)/C=C/C(=O)O [fumaric acid monoethyl ester]
Increase in γ-Globin Expressing Cells (fetal globin [1]): 59.1%
amino acid (MeAIB) uptake / transport [2]: did not inhibit amino acid transport

O=C(O)CSc1ccccc1 [thiophenoxyacetic acid]
increase in fetal globin over controls (fetal globin [3]): 38%
